Source: US8063065B2, “Azaindazole compounds as CCR1 receptor antagonists” (Boehringer Ingelheim International GmbH, priority 2008, dated 2011)

Experiments:
[1] = target: T1, CCR1 (Homo sapiens, UniProt P32246); experiment: Method B: calcium flux in CCR1 transfected cells (Calcium 4 dye, […] FDSS6000), block of the CCR1/MIP-1α interaction; format: cell-based; details: Method B: Calcium 4 dye, MIP-1alpha at EC80
T1 sequence (P32246 1-355): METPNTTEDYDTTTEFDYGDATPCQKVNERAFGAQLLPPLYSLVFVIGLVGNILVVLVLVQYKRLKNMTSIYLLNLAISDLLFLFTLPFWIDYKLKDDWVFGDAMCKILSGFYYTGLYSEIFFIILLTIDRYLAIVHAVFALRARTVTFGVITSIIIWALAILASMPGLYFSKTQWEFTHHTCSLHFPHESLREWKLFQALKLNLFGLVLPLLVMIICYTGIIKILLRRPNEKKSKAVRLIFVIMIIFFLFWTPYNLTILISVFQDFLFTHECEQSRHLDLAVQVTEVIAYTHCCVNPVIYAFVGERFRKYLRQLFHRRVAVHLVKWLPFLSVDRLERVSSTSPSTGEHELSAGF
Procedure, shortened: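 Calcium flux on an FDSS6000 was triggered by MIP-1α at its EC80 in stably CCR1/G-alpha-16-expressing non-adherent cells. Before this, Calcium 4-loaded cells were preincubated with compound in HBSS, 20 mM HEPES pH 7.4, 1% DMSO: 30 min at 37 C plus 30 min at room temperature. Ten 4-fold doses began at 3,000 nM, with ±MIP-1α DMSO wells as controls.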

[2] = target: T1, CCR1; experiment: Method A: calcium flux in CCR1 transfected cells (Fluo-4 NW, FLIPR TETRA), block of the CCR1/MIP-1α interaction; format: cell-based; details: Method A: Fluo-4 NW, MIP-1 alpha at EC80
Procedure, shortened: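 Non-adherent cells stably expressing recombinant CCR1 and G-alpha-16, Fluo-4 NW-loaded 1 h at room temperature, preincubated 1 h with compound (top 3,000 nM, 4-fold, 10 doses; 1% DMSO) in HBSS/20 mM HEPES pH 7.4. MIP-1 alpha added at EC80; intracellular calcium flux recorded on FLIPR TETRA.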

| Compound | IC50 [1] | IC50 [2] |
| --- | --- | --- |
| C[C@@H](O)CNS(=O)(=O)c1ccc(CNC(=O)c2cncc3c2cnn3-c2ccc(F)cc2)cc1 [1-(4-Fluorophenyl)-1H-pyrazolo[3,4-c]pyridine-4-carboxylic acid 4-((R)-2-hydroxy-propylsulfamoyl)-benzylamide] | 1 nM | 2 nM |
| C[C@H](O)CNS(=O)(=O)c1ccc(CNC(=O)c2cncc3c2cnn3-c2ccc(F)cc2)cc1 [1-(4-Fluorophenyl)-1H-pyrazolo[3,4-c]pyridine-4-carboxylic acid 4-((S)-2-hydroxy-propylsulfamoyl)-benzylamide] | 0.8 nM | 1 nM |
| CC[C@H](NC(=O)c1cncc2c1cnn2-c1ccc(F)cc1)c1cccnc1 [1-(4-Fluorophenyl)-1H-pyrazolo[3,4-c]pyridine-4-carboxylic acid ((S)-1-pyridin-3-yl-propyl)-amide] | 8 nM | 15 nM |
| C=CC[C@H](NC(=O)c1cncc2c1cnn2-c1ccc(F)cc1)c1ccnc(S(=O)(=O)CC)c1 [1-(4-Fluorophenyl)-1H-pyrazolo[3,4-c]pyridine-4-carboxylic acid [(S)-1-(2-ethanesulfonyl-pyridin-4-yl)-but-3-enyl]-amide] | 0.4 nM | 0.6 nM |
| CC[C@H](NC(=O)c1cncc2c1cnn2-c1ccc(F)cc1)c1cncc(S(=O)(=O)CC)c1 [1-(4-Fluorophenyl)-1H-pyrazolo[3,4-c]pyridine-4-carboxylic acid [(S)-1-(5-ethanesulfonyl-pyridin-3-yl)-propyl]-amide] | 0.3 nM | 0.4 nM |
| CCC[C@H](NC(=O)c1cncc2c1cnn2-c1ccc(F)cc1)c1cncc(S(C)(=O)=O)c1 [1-(4-Fluorophenyl)-1H-pyrazolo[3,4-c]pyridine-4-carboxylic acid [(S)-1-(5-methanesulfonyl-pyridin-3-yl)-butyl]-amide] |  | 0.3 nM |
| C[C@H](NC(=O)c1cncc2c1cnn2-c1ccc(F)cc1)c1cncc(S(C)(=O)=O)c1 [1-(4-Fluorophenyl)-1H-pyrazolo[3,4-c]pyridine-4-carboxylic acid [(S)-1-(5-methanesulfonyl-pyridin-3-yl)-ethyl]-amide] |  | 3 nM |
| CC[C@H](NC(=O)c1cncc2c1cnn2-c1ccc(F)cc1)c1cncc(S(C)(=O)=O)c1 [1-(4-Fluorophenyl)-1H-pyrazolo[3,4-c]pyridine-4-carboxylic acid [(S)-1-(5-methanesulfonyl-pyridin-3-yl)-propyl]-amide] | 0.2 nM | 0.5 nM |
| CCC[C@H](NC(=O)c1cncc2c1cnn2-c1ccc(F)cc1)c1cncc(S(=O)(=O)NC)c1 [1-(4-Fluorophenyl)-1H-pyrazolo[3,4-c]pyridine-4-carboxylic acid [(S)-1-(5-methylsulfamoyl-pyridin-3-yl)-butyl]-amide] |  | 0.2 nM |
| CCC[C@H](NC(=O)c1cncc2c1cnn2-c1ccc(F)cc1)c1cncc(S(N)(=O)=O)c1 [1-(4-Fluorophenyl)-1H-pyrazolo[3,4-c]pyridine-4-carboxylic acid [(S)-1-(5-sulfamoyl-pyridin-3-yl)-butyl]-amide] |  | 0.3 nM |
| C[C@H](NC(=O)c1cncc2c1cnn2-c1ccc(F)cc1)c1cncc(S(N)(=O)=O)c1 [1-(4-Fluorophenyl)-1H-pyrazolo[3,4-c]pyridine-4-carboxylic acid [(S)-1-(5-sulfamoyl-pyridin-3-yl)-ethyl]-amide] | 0.9 nM | 2 nM |
| C[C@H](NC(=O)c1cncc2c1cnn2-c1ccc(F)cc1)c1cccc(Br)n1 [1-(4-Fluorophenyl)-1H-pyrazolo[3,4-c]pyridine-4-carboxylic acid [(S)-1-(6-bromopyridin-2-yl)-ethyl]-amide] |  | 5 nM |
| C[C@H](NC(=O)c1cncc2c1cnn2-c1ccc(F)cc1)c1cccc(S(C)(=O)=O)n1 [1-(4-Fluorophenyl)-1H-pyrazolo[3,4-c]pyridine-4-carboxylic acid [(S)-1-(6-methanesulfonyl-pyridin-2-yl)-ethyl]-amide] |  | 6 nM |
| C[C@H](NC(=O)c1cncc2c1cnn2-c1ccc(F)cc1)c1ccc(S(C)(=O)=O)nc1 [1-(4-Fluorophenyl)-1H-pyrazolo[3,4-c]pyridine-4-carboxylic acid [(S)-1-(6-methanesulfonyl-pyridin-3-yl)-ethyl]-amide] | 3 nM | 9 nM |
| CN(C)CCN(c1ccc(CNC(=O)c2cncc3c2cnn3-c2ccc(F)cc2)cn1)S(C)(=O)=O [1-(4-Fluorophenyl)-1H-pyrazolo[3,4-c]pyridine-4-carboxylic acid {6-[(2-dimethylamino-ethyl)-methanesulfonyl-amino]-pyridin-3-ylmethyl}-amide] |  | 22 nM |
| COCCN(c1ccc(CNC(=O)c2cncc3c2cnn3-c2ccc(F)cc2)cn1)S(C)(=O)=O [1-(4-Fluorophenyl)-1H-pyrazolo[3,4-c]pyridine-4-carboxylic acid {6-[methanesulfonyl-(2-methoxy-ethyl)-amino]-pyridin-3-ylmethyl}-amide] |  | 1 nM |
| O=C(NCc1cccc(C(F)(F)F)c1)c1c[n+]([O-])cc2c1cnn2-c1ccc(F)cc1 [1-(4-Fluorophenyl)-6-oxy-1H-pyrazolo[3,4-c]pyridine-4-carboxylic acid 3-trifluoromethyl-benzylamide] |  | 6 nM |
| CCCC(NC(=O)c1cncc2c1cnn2-c1ccc(F)cc1)c1cncc(S(=O)(=O)CCC(=O)OC)c1 (stereo not drawn) [3-[5-(1-{[1-(4-Fluorophenyl)-1H-pyrazolo[3,4-c]pyridine-4-carbonyl]-amino}-butyl)-pyridine-3-sulfonyl]-propionic acid methyl ester] |  | 3 nM |
| CCC[C@H](NC(=O)c1cncc2c1cnn2-c1ccc(F)cc1)c1cncc(S(=O)(=O)CCC(=O)OC)c1 [3-[5-((S)-1-{[1-(4-Fluorophenyl)-1H-pyrazolo[3,4-c]pyridine-4-carbonyl]-amino}-butyl)-pyridine-3-sulfonyl]-propionic acid methyl ester] |  | 2 nM |
| CCC[C@H](NC(=O)c1cncc2c1cnn2-c1ccc(F)cc1)c1cncc(S(=O)(=O)CCC(=O)O)c1 [3-[5-((S)-1-{[1-(4-Fluorophenyl)-1H-pyrazolo[3,4-c]pyridine-4-carbonyl]-amino}-butyl)-pyridine-3-sulfonyl]-propionic acid] |  | 17 nM |
| CC[C@H](NC(=O)c1cncc2c1cnn2-c1ccc(F)cc1)c1cncc(S(=O)(=O)CCC(=O)O)c1 [3-[5-((S)-1-{[1-(4-Fluorophenyl)-1H-pyrazolo[3,4-c]pyridine-4-carbonyl]-amino}-propyl)-pyridine-3-sulfonyl]-propionic acid] | 14 nM | 35 nM |
| CCC[C@H](NC(=O)c1cncc2c1cnn2-c1ccc(F)cc1)c1cncc(S(=O)(=O)O)c1 [5-((S)-1-{[1-(4-Fluorophenyl)-1H-pyrazolo[3,4-c]pyridine-4-carbonyl]-amino}-butyl)-pyridine-3-sulfonic acid] |  | 4 nM |
| CC(=O)OCCN(C)S(=O)(=O)c1ccc(CNC(=O)c2cncc3c2cnn3-c2ccc(F)cc2)cc1 [Acetic acid 2-{[4-({[1-(4-fluorophenyl)-1H-pyrazolo[3,4-c]pyridine-4-carbonyl]-amino}-methyl)-benzenesulfonyl]-methyl-amino}-ethyl ester] |  | 2 nM |
| COC(=O)CNS(=O)(=O)c1ccc(CNC(=O)c2cncc3c2cnn3-c2ccc(F)cc2)cc1 [[4-({[1-(4-Fluorophenyl)-1H-pyrazolo[3,4-c]pyridine-4-carbonyl]-amino}-methyl)-benzenesulfonylamino]-acetic acid methyl ester] |  | 3 nM |
